Experimental data published in ChEMBL document CHEMBL1201862, “PubChem BioAssay data set” (2004).
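Cultured in 96-well plates, cells were exposed to test compound for 48 hours across five concentrations. GI50: concentration for 50% inhibition of growth.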 The source made the active and inactive calls. Cut-off read from the data, not from the text of the source: active = GI50 up to about 1.1 µM and inactive = higher.

Legend:
Test in all cases: NCI anticancer screen, dose series, 48 h
NCI-H226 = test system: NCI-H226
K562 = test system: K562
TK-10 = test system: TK-10
KM12 = test system: KM12
SK-MEL-5 = test system: SK-MEL-5
SF-295 = test system: SF-295
LOX IMVI = test system: LOX IMVI
SW-620 = test system: SW-620
EKVX = test system: EKVX
HOP-92 = test system: HOP-92
HT-29 = test system: HT-29
UACC-257 = test system: UACC-257
OVCAR-5 = test system: OVCAR-5
MCF7 = test system: MCF7
HOP-62 = test system: HOP-62
SK-OV-3 = test system: SK-OV-3
UACC-62 = test system: UACC-62
SK-MEL-2 = test system: SK-MEL-2
HCC 2998 = test system: HCC 2998
RPMI-8226 = test system: RPMI-8226

Compound	GI50 (NCI-H226)	GI50 (K562)	GI50 (TK-10)	GI50 (KM12)	GI50 (SK-MEL-5)	GI50 (SF-295)	GI50 (LOX IMVI)	GI50 (SW-620)	GI50 (EKVX)	GI50 (HOP-92)	GI50 (HT-29)	GI50 (UACC-257)	GI50 (OVCAR-5)	GI50 (MCF7)	GI50 (HOP-62)	GI50 (SK-OV-3)	GI50 (UACC-62)	GI50 (SK-MEL-2)	GI50 (HCC 2998)	GI50 (RPMI-8226)
CCN1CCCCCCCCCC(=N/O)/C(=N\O)C1	> 100 µM (inactive)	> 100 µM (inactive)	> 100 µM (inactive)	> 100 µM (inactive)	> 100 µM (inactive)	> 100 µM (inactive)	> 100 µM (inactive)	> 100 µM (inactive)	> 100 µM (inactive)	> 100 µM (inactive)	> 100 µM (inactive)	> 100 µM (inactive)	> 100 µM (inactive)	> 100 µM (inactive)	> 100 µM (inactive)					
CC1(C)Oc2ccc3c(=O)cc(-c4ccc(F)cc4)oc3c2C1C(=O)O (configuration not stated)	> 100 µM (inactive)	> 100 µM (inactive)	> 100 µM (inactive)		> 100 µM (inactive)	> 100 µM (inactive)			> 100 µM (inactive)		> 100 µM (inactive)	> 100 µM (inactive)	> 100 µM (inactive)	> 100 µM (inactive)	> 100 µM (inactive)	> 100 µM (inactive)	> 100 µM (inactive)	> 100 µM (inactive)	> 100 µM (inactive)	
C[Si](C)(OCCS(=O)(=O)O)C1S(=O)(=O)OCCOS1(=O)=O	64.9 µM (inactive)	70 µM (inactive)	> 100 µM (inactive)	91.6 µM (inactive)	49.5 µM (inactive)	4.86 µM (inactive)	21.2 µM (inactive)	0.495 µM (active)	> 100 µM (inactive)	23.8 µM (inactive)	> 100 µM (inactive)	> 100 µM (inactive)	> 100 µM (inactive)	36.6 µM (inactive)	56.4 µM (inactive)	79.4 µM (inactive)	13.7 µM (inactive)		35.5 µM (inactive)	> 100 µM (inactive)
CC(C)C1=CC23CCC4C(C)(C(=O)O)CCCC4(C)C2CC1C1C(=O)N(CCCCCCN2C(=O)C4C5CC6C7(C)CCCC(C)(C(=O)O)C7CCC6(C=C5C(C)C)C4C2=O)C(=O)C13 (configuration not stated)	> 10 µM (inactive)	16.6 µM (inactive)	16.2 µM (inactive)	11.4 µM (inactive)	14 µM (inactive)			15.9 µM (inactive)	7.4 µM (inactive)	21.7 µM (inactive)	3.84 µM (inactive)		22.4 µM (inactive)	6.76 µM (inactive)	> 10 µM (inactive)		37.8 µM (inactive)	13.8 µM (inactive)	12.7 µM (inactive)	13.7 µM (inactive)
COc1ccc(CCn2cnc3ccccc32)cc1	> 100 µM (inactive)	> 100 µM (inactive)	> 100 µM (inactive)	> 100 µM (inactive)	> 100 µM (inactive)	> 100 µM (inactive)		> 100 µM (inactive)	> 100 µM (inactive)	> 100 µM (inactive)	> 100 µM (inactive)	> 100 µM (inactive)	> 100 µM (inactive)	> 100 µM (inactive)	> 100 µM (inactive)	> 100 µM (inactive)	> 100 µM (inactive)	> 100 µM (inactive)	> 100 µM (inactive)	> 100 µM (inactive)
C(=N\c1ccc(-c2cc(-c3ccccc3)nc3ccc4ccccc4c23)cc1)/c1ccccc1	22.3 µM (inactive)	4.79 µM (inactive)	22.3 µM (inactive)	10.8 µM (inactive)	17.4 µM (inactive)	10.9 µM (inactive)	19.9 µM (inactive)	26.2 µM (inactive)	18.1 µM (inactive)		7.87 µM (inactive)	23.5 µM (inactive)	56.1 µM (inactive)	9.25 µM (inactive)	20.9 µM (inactive)	30.3 µM (inactive)	20.8 µM (inactive)		11.4 µM (inactive)	15.6 µM (inactive)
CO/C=C(/C(=O)OC)[C@@H]1C[C@@H]1c1ccc2ccccc2c1	29.2 µM (inactive)	23 µM (inactive)	37.5 µM (inactive)	21.7 µM (inactive)	16.4 µM (inactive)	37.2 µM (inactive)			19.2 µM (inactive)	19.8 µM (inactive)	19.1 µM (inactive)	26 µM (inactive)	97.5 µM (inactive)	30.3 µM (inactive)	45.4 µM (inactive)	22.2 µM (inactive)	32.5 µM (inactive)	15.2 µM (inactive)	20.4 µM (inactive)	20.3 µM (inactive)
COc1ccc(C(=O)Oc2c(C#N)sc3c2c(=O)n(-c2ccccc2)c(=S)n3-c2ccccc2)cc1	24.2 µM (inactive)	30.3 µM (inactive)	28 µM (inactive)	18.5 µM (inactive)	21.6 µM (inactive)	35.7 µM (inactive)	19.5 µM (inactive)	32.7 µM (inactive)	12.9 µM (inactive)	23.6 µM (inactive)	22.2 µM (inactive)	47.5 µM (inactive)	26.4 µM (inactive)	15 µM (inactive)	24.7 µM (inactive)	33.9 µM (inactive)	5.66 µM (inactive)		27.9 µM (inactive)	25.2 µM (inactive)
CO[C@@]12[C@H](COC(N)=O)C3=C(C(=O)C(C)=C(N)C3=O)N1C[C@@H]1N[C@@H]12 [MITOMYCIN]	0.714 µM (active)	2.03 µM (inactive)	4.86 µM (inactive)	2.22 µM (inactive)				0.485 µM (active)	4.62 µM (inactive)	3.49 µM (inactive)	0.759 µM (active)	1.21 µM (inactive)	1.36 µM (inactive)	0.148 µM (active)		1.02 µM (active)		1.65 µM (inactive)	0.614 µM (active)	2.4 µM (inactive)
C#CCCCC(=C)C[C@H](OCc1ccccc1)[C@H]1OC(=O)[C@@H]1C	96.4 µM (inactive)		> 100 µM (inactive)	39 µM (inactive)		89.7 µM (inactive)		> 100 µM (inactive)	> 100 µM (inactive)	37.6 µM (inactive)		> 100 µM (inactive)	> 100 µM (inactive)	37.2 µM (inactive)	> 100 µM (inactive)	> 100 µM (inactive)	> 100 µM (inactive)	> 100 µM (inactive)	> 100 µM (inactive)	11.5 µM (inactive)
C1=CN2C[n+]3ccc4ccccc4c3N=C2c2ccccc21		1.24 µM (inactive)	15.3 µM (inactive)	1.85 µM (inactive)	0.308 µM (active)	2.69 µM (inactive)		4.02 µM (inactive)	7.62 µM (inactive)	2.04 µM (inactive)	2.45 µM (inactive)	2.92 µM (inactive)	16.1 µM (inactive)	0.929 µM (active)	7.57 µM (inactive)	12.2 µM (inactive)	1.93 µM (inactive)	2.67 µM (inactive)		2.32 µM (inactive)
